Publication PMC5785490, “Retinoic acid prevents immunogenicity of milk lipocalin Bos d 5 through binding to its immunodominant T-cell epitope” (Scientific Reports, 2018)

Target: T1, Bos d 5 (bovine beta-lactoglobulin) (Bos taurus, UniProt P02754)
T1 construct: gene LGB; commercially available bovine beta-lactoglobulin (L0130, Sigma); globular protein of 162 amino acid residues
Assay: intrinsic tryptophan fluorescence quenching (pH […] °C), supported by ANS displacement assay
Type: binding

T1 sequence (P02754 17-178): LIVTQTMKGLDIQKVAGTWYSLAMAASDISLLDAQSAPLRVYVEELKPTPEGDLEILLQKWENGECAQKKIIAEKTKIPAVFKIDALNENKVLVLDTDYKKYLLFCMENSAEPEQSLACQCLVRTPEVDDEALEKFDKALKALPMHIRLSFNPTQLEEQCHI

SMILES: CC1=C(/C=C/C(C)=C/C=C/C(C)=C/C(=O)O)C(C)(C)CCC1 [RA, all trans-retinoic acid]
- Kd: 6.1 µM
